# Experimental data taken from patent US8258099B2, “Pin1-modulating compounds and methods of use thereof” (Max-Planck-Gesellschaft zur Foerderung der Wissenschaften …, priority 2004, dated 2012).
# Square brackets hold non-standard residues; d marks the D form. Peptide text beside a SMILES is read from it. d(pT) = C[C@H](OP(=O)(O)O)[C@@H](N)C(=O)O; 2Nal = N[C@@H](Cc1ccc2ccccc2c1)C(=O)O; Pip = O=C(O)[C@@H]1CCCCN1
# Biological target: T1, full length hPin1 (Homo sapiens, UniProt Q13526)
# T1 construct: The protease free assay ensures reliable measurement of IC50 values for the full-length hPin1
# Test: Isothermal titration calorimetry (ITC), full length hPin1
# Type: binding
# Experimental: FIGS. 3A-B depicts a thermodynamic characterization of the binding of peptide 17 towards full length hPin1 by isothermal titration calorimetry (ITC). FIG. 3A depicts peaks that represent the heat evolved after injection of peptide 17 into the sample cell containing hPin1. After the 11th injection only the heat of dilution is observed. The experiment was performed at 10 C. FIG. 3B depicts integrals of the corresponding peaks of panel A are plotted against the molar ratio of peptide 17 and hPin1. The solid line represents a nonlinear least squares fit analysis of the binding heat assuming a single binding site model with the following parameters: ΔHbind=−4561±36 cal/mol, TΔSbind=5433±529 cal/mol, n=0.96 (binding stoichiometry) and KAss=5.18×10^7±7×10^6 M^−1 (association constant).
# Calorimetric experiments were performed using a VP-ITC titration calorimeter (MicroCal, Inc, Northampton, Mass.) at 10° C. All solutions were degassed under vacuum prior to use. Solutions of hPin1 and hPin1 PPIase domain were dialyzed against 10 mM Hepes (pH 7.8). The protein concentration in the sample cell was adjusted to 6.5 μM using the same batch of buffer. Protein concentrations were determined as described above. The volume of the protein solution in the sample cell was 1.4 ml. The injection syringe was filled with 300 μl solution of peptide 17 (see table III) (250 μM in the same batch of buffer as used for dialyses). Each titration experiment consisted of a single 1 μl injection followed by 16 identical injections of 5 μl solution of peptide 17.
# In principle, minimally four forms of a competing substrate in the presence of hPin1 have to be considered, the free cis and trans isomers together with two Michaelis complexes. This four-site exchange model of PPIase catalysis involves understanding predisposing factors of the stability of hPin1/substrate complexes, expected to be weaker, than the stability for those formed by phosphopeptides lacking substrate properties. The consequent increase in inhibitory potency could be realized by a transition state destabilizing substitution in peptide 15. Previous studies have shown that following C^α-stereocenter inversion of a substrate at the P1 position the parvulins fully retain substrate-like active site affinity for the derivatives while catalytic rate acceleration is abolished (Schiene et al., 1998). […] To optimize solute diffusion after mechanical injection of the Pin1 binding peptides into the viscous Xenopus laevis egg cytosol, the molecular weight of 1376.5 for peptide 16 was reduced to 823.8 for peptide 17. Following chain truncation peptide 17 maintained high affinity for Pin1 (Table III). To ensure domain selectivity, the binding of peptide 17 towards hPin1 was characterized using the isothermal titration calorimetry (ITC). […] The dissociation constant determined with ITC is in the same range as obtained in the protease-free PPIase assay (Table III).
# [1] = ITC, 10° C., single binding site model
# T1 sequence (Q13526 whole entry): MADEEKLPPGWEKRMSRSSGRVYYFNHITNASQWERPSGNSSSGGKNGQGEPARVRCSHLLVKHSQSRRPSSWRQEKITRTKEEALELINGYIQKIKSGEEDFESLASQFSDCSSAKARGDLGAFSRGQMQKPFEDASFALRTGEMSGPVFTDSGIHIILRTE
smiles,measurement,setting,value
"CC(=O)N[C@@H](Cc1ccccc1)C(=O)N[C@@H](C(=O)N1CCCC[C@H]1C(=O)N[C@@H](Cc1ccc2ccccc2c1)C(=O)N[C@@H](CCC(N)=O)C(N)=O)[C@H](C)OP(=O)(O)O [Peptide 17, Ac-Phe-D-Thr(PO3H2)-Pip-Nal-Gln-NH2] (Ac-F[d(pT)][Pip][2Nal]Q-NH2)",Kd,,19.3 ± 2.6 nM
same,KAss (association constant),[1],5.18e+07 ± 7e+06 M⁻¹
same,binding enthalpy ΔHbind,[1],-4.561 ± 0.036 kcal/mol
same,binding entropy TΔSbind,[1],5.433 ± 0.529 kcal/mol
same,n (binding stoichiometry),[1],0.96
same,fold tighter binding of D isomer compared to L isomer,Pin1,30 fold
